Reference: patent publication US11873291B2, “Quinoline cGAS antagonist compounds” (ImmuneSensor Therapeutics, Inc., priority 2020, dated 2024)

These compounds were tested against T1, recombinant human cGAS (aa147-522) (Homo sapiens, UniProt Q8N884) (assay: In vitro inhibition assay of cGAS activity (ATP consumption, KinaseGlo Max)). Conditions: Table 2, read-out: cGAS Inhibition Results IC50.
T1 construct: recombinant human cGAS (aa147-522); His6-SUMO (cleaved yes); made in house; host or cells: E. coli BL21/pLys
Assay type: biochemical
Method: Expression and Purification of Recombinant cGAS Protein: cDNA encoding full-length or amino acids […] of human cGAS was inserted into a modified pET28a vector containing an in-frame His6-SUMO tag. The E. coli strain BL21/pLys harboring the plasmid was induced with 0.5 mM IPTG at 18° C. overnight. His6-SUMO tag was removed by a SUMO protease digestion following purification of the His6-SUMO-cGAS as described previously (Sun et al, 2013, Science 339, 786).
In vitro inhibition assay of cGAS activity: A 60 μL mixture containing 20 mM Tris-Cl, pH 7.5, 5 mM MgCl2, 0.2 mg/mL BSA, 0.01 mg/mL Herring testis DNA, 6.6 μM ATP, 0.1 mM GTP, 1.5 μg/mL of recombinant human cGAS (aa147-522) and serial dilutions of a test compound in DMSO was added to a 96-well plate and incubated at 37° C. for 20 minutes. At the end of reaction, 40 μL of KinaseGlo Max (Promega) was added and chemiluminescence was measured with a luminometer. Inhibitory effect of a compound is evaluated by plotting percentage of ATP consumption against logarithm of compound concentrations. IC50 value was calculated using GraphPad Prism 8 (GraphPad Software, Inc.).
The letter codes for cGAS IC50 include: A (<2 μM); B (2-30 μM); C (>30 μM).

T1 sequence (Q8N884 147-522): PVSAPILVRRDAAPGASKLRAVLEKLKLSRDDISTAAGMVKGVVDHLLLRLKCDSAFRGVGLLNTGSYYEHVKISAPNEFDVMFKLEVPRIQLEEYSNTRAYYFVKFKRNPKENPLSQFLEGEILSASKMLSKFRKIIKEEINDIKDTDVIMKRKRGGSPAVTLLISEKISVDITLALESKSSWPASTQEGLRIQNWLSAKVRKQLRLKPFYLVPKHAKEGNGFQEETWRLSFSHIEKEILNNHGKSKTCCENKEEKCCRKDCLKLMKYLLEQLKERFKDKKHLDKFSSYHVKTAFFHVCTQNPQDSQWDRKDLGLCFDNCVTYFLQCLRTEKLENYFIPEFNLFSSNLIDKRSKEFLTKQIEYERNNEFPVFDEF

IC50	SMILES
< 2 µM	CC(=O)N1CCOC(CNc2cc(-c3cn[nH]c3)c3ccc(Cl)c(Cl)c3n2)C1 (stereo not shown) [I-221, 1-(2-(((7,8-dichloro-4-(1H-pyrazol-4-yl)quinolin-2-yl)amino)methyl)morpholino)ethan-1-one]
> 30 µM	O=C(O)CNc1cc(-c2ccn[nH]2)nc2c(Cl)c(Cl)ccc12 [I-426]
2 to 30 µM	NC(=O)Nc1cccc(-c2cc(-n3ccnc3)c3ccc(Cl)cc3n2)c1 [I-11, 1-(3-(7-chloro-4-(1H-imidazol-1-yl)quinolin-2-yl)phenyl)urea]
2 to 30 µM	CN(CCNS(=O)(=O)c1cccnc1)c1cc(-n2ccnc2)c2ccc(Cl)cc2n1 [I-231]
2 to 30 µM	O=C1CN(c2cc(-n3ccnc3)c3ccc(Cl)cc3n2)CC(C(=O)O)N1 (stereo not shown) [I-84]
2 to 30 µM	Cn1cnc(S(=O)(=O)NC2CCCN(c3cc(-n4ccnc4)c4ccc(Cl)cc4n3)C2)c1 (stereo not shown) [I-103]
< 2 µM	O=C1CN(c2cc(-n3ccnc3)c3ccc(Cl)cc3n2)CCN1 [I-85]
> 30 µM	OCc1cn(-c2cc(-c3ccccc3)nc3cc(Cl)ccc23)cn1 [I-63]
> 30 µM	Cn1cc(-c2cc(NCC(=O)O)c3ccc(Cl)c(Cl)c3n2)cn1 [I-425]
2 to 30 µM	CNC(=O)[C@@H]1CCCN1c1cc(-n2ccnc2)c2ccc(Cl)c(Cl)c2n1 [I-450]
> 30 µM	O=C1COc2ccc(S(=O)(=O)NC[C@@H]3CCCN3c3cc(-n4ccnc4)c4ccc(Cl)c(Cl)c4n3)cc2N1 [I-393]
2 to 30 µM	O=S(=O)(O)CCN(Cc1ccccc1)c1cc(-n2ccnc2)c2ccc(Cl)c(Cl)c2n1 [I-164, 2-(benzyl(7,8-dichloro-4-(1H-imidazol-1-yl)quinolin-2-yl)amino)ethane-1-sulfonic acid]
2 to 30 µM	CC(C)[C@H](CC(=O)O)Nc1cc(-n2ccnc2)c2ccc(Cl)c(Cl)c2n1 [I-188]
< 2 µM	CC(C)(C)O[C@@H]1C[C@@H](C(=O)O)N(c2cc(-c3cn[nH]c3)c3ccc(Cl)c(Cl)c3n2)C1 [I-437]
2 to 30 µM	O=C(O)CNCCCc1cc(-c2cn[nH]c2)c2ccc(Cl)c(Cl)c2n1 [I-336, (3-(7,8-dichloro-4-(1H-pyrazol-4-yl)quinolin-2-yl)propyl)glycine]
< 2 µM	CN(CCCO[PH](=O)OCCC#N)c1cc(-c2cn[nH]c2)c2ccc(Cl)c(Cl)c2n1 (stereo not shown) [I-257]
< 2 µM	OC[C@@H]1CN(c2cc(-c3cn[nH]c3)c3ccc(Cl)c(Cl)c3n2)CCO1 [I-372]
2 to 30 µM	COc1ncc(-c2cc(-n3ccnc3)c3ccc(Cl)cc3n2)cc1C(=O)O [I-33, 5-(7-chloro-4-(1H-imidazol-1-yl)quinolin-2-yl)-2-methoxynicotinic acid]
2 to 30 µM	Cc1cc(NCC(=O)O)c2ccc(Cl)c(Cl)c2n1 [I-293]
< 2 µM	O=C(O)C1CN(c2cc(-n3ccnc3)c3ccc(Cl)c(Cl)c3n2)CCO1 (stereo not shown) [I-91]
> 30 µM	Cc1cc(N2CCCC(S(N)(=O)=O)C2)c2ccc(Cl)c(Cl)c2n1 (stereo not shown) [I-317]

IC50	SMILES
2 to 30 µM	O=C(O)c1cc(-c2cc(-n3ccnc3)c3ccc(Cl)cc3n2)cnc1O [I-57, 5-(7-chloro-4-(1H-imidazol-1-yl)quinolin-2-yl)-2-hydroxynicotinic acid]
< 2 µM	O=C(O)[C@@H]1C[C@@H](NS(=O)(=O)c2ccccc2)CN1c1cc(-n2ccnc2)c2ccc(Cl)c(Cl)c2n1 [I-349]
> 30 µM	COc1ccccc1-c1cc(-n2ccnc2)c2ccc(Br)cc2n1 [I-381]
< 2 µM	NS(=O)(=O)CCNc1cc(-c2cn[nH]c2)c2ccc(Cl)c(F)c2n1 [I-262]
2 to 30 µM	O=C(C[C@@H]1CCCN1c1cc(-n2ccnc2)c2ccc(Cl)c(Cl)c2n1)N[C@@H](C(=O)O)c1ccccc1 [I-388]
2 to 30 µM	O=C(NO)[C@@H]1CCCN(c2cc(-n3ccnc3)c3ccc(Cl)cc3n2)C1 [I-137, (R)-1-(7-chloro-4-(1H-imidazol-1-yl)quinolin-2-yl)-N-hydroxypiperidine-3-carboxamide]
2 to 30 µM	O=C(O)[C@H]1CCCN1c1cc(-c2cn[nH]c2)nc2c(Cl)c(Cl)ccc12 [I-292]
2 to 30 µM	O=P(O)(O)CC1CCCN(c2cc(-n3ccnc3)c3ccc(Cl)c(Cl)c3n2)C1 (stereo not shown) [I-114]
> 30 µM	O=C(CO)N1CCN(c2cc(-n3ccnc3)c3ccc(Cl)cc3n2)CC1 [I-77, 1-(4-(7-chloro-4-(1H-imidazol-1-yl)quinolin-2-yl)piperazin-1-yl)-2-hydroxyethan-1-one]
> 30 µM	FC(F)(F)c1cc(-n2ccnc2)c2ccc(Cl)cc2n1 [I-422]
< 2 µM	OC1(CNc2cc(-n3ccnc3)c3ccc(Cl)c(Cl)c3n2)CC1 [I-245]
2 to 30 µM	CC(=O)OCC(=O)NC1CCCN(c2cc(-n3ccnc3)c3ccc(Cl)cc3n2)C1 (stereo not shown) [I-395, 2-((1-(7-chloro-4-(1H-imidazol-1-yl)quinolin-2-yl)piperidin-3-yl)amino)-2-oxoethyl acetate]
< 2 µM	CN(CCS(=O)(=O)O)c1cc(-n2ccnc2)c2ccc(Cl)c(Cl)c2n1 [I-159]
2 to 30 µM	O=C(O)[C@@H]1C[C@@H](C2CCCCC2)CN1c1cc(-c2cn[nH]c2)c2ccc(Cl)c(Cl)c2n1 [I-439]
> 30 µM	N#Cc1cn(-c2cc(-c3ccccc3)nc3cc(Cl)ccc23)cn1 [I-62]
< 2 µM	CN1CCN(c2cc(-n3ccnc3)c3ccc(Cl)c(Cl)c3n2)CC1C(=O)O (stereo not shown) [I-82, 4-(7,8-Dichloro-4-(1H-imidazol-1-yl)quinolin-2-yl)-1-methylpiperazine-2-carboxylic acid]
2 to 30 µM	CC(CN1CCOCC1)Nc1cc(-c2cn[nH]c2)c2ccc(Cl)c(Cl)c2n1 (stereo not shown) [I-211]
2 to 30 µM	O=C(O)[C@@H]1CCCN1c1cc(-c2cn[nH]c2)nc2c(Cl)c(Cl)ccc12 [I-291]
< 2 µM	CN(CCC(=O)NCC(=O)O)c1cc(-c2cn[nH]c2)c2ccc(Cl)c(Cl)c2n1 [I-196]
2 to 30 µM	CC(=O)NCCN(C)c1cc(-n2ccnc2)c2ccc(Cl)cc2n1 [I-236]

Same assay, conditions: Table 3, read-out: cGAS Inhibition Results IC50

IC50	SMILES
< 2 µM	O=C(O)c1ccnn1C[C@@H]1CCCN1c1cc(-n2ccnc2)c2ccc(Cl)c(Cl)c2n1 [I-727, (S)-1-((1-(7,8-dichloro-4-(1H-imidazol-1-yl)quinolin-2-yl)pyrrolidin-2-yl)methyl)-1H-pyrazole-5-carboxylic acid]
< 2 µM	OC[C@@H]1CC(F)(F)CN1c1cc(-n2ccnc2)c2ccc(Cl)c(Cl)c2n1 [I-504]
2 to 30 µM	COC(=O)[C@@H]1C[C@@H](OCCC(=O)O)CN1c1cc(-n2ccnc2)c2ccc(Cl)c(Cl)c2n1 [I-869]
< 2 µM	O=C(O)[C@@H]1CCCN1C(=O)[C@@H]1CCCN1c1cc(-n2ccnc2)c2ccc(Cl)c(Cl)c2n1 [I-552]
< 2 µM	O=C(O)[C@@H]1C[C@H](OC(=O)N2CCOCC2)CN1c1cc(-n2ccnc2)c2ccc(Cl)c(Cl)c2n1 [I-571]
2 to 30 µM	CN(CCNC(=O)C1CCC(C(=O)O)C1)c1cc(-n2ccnc2)c2ccc(Cl)c(Cl)c2n1 (stereo not shown) [I-615]
< 2 µM	COC(=O)CNC(=O)O[C@@H]1CCN(c2cc(-n3ccnc3)c3ccc(Cl)c(Cl)c3n2)[C@@H]1C(=O)OC [I-653, methyl (2S,3R)-1-(7,8-dichloro-4-(1H-imidazol-1-yl)quinolin-2-yl)-3-(((2-methoxy-2-oxoethyl)carbamoyl)oxy)pyrrolidine-2-carboxylate]
< 2 µM	CN(CCS(=O)(=O)NCCC(=O)O)c1cc(-n2ccnc2)c2ccc(Cl)c(Cl)c2n1 [I-630]
2 to 30 µM	CON(C)C(=O)[C@@H]1CCCN1c1cc(-n2ccnc2)c2ccc(Cl)c(Cl)c2n1 [I-542]
< 2 µM	O=C(O)[C@@H]1C[C@@H]2CCC[C@@H]2N1c1cc(-n2ccnc2)c2ccc(Cl)c(Cl)c2n1 [I-515]
2 to 30 µM	O=C(O)C1CCCN(C(=O)[C@@H]2CCCN2c2cc(-n3ccnc3)c3ccc(Cl)c(Cl)c3n2)C1 (stereo partly shown) [I-546]
< 2 µM	O[C@H]([C@@H]1CCCN1c1cc(-n2ccnc2)c2ccc(Cl)c(Cl)c2n1)C(F)(F)F [I-655, (R)-1-((S)-1-(7,8-dichloro-4-(1H-imidazol-1-yl)quinolin-2-yl)pyrrolidin-2-yl)-2,2,2-trifluoroethan-1-ol]
2 to 30 µM	O=C(O)C12CC1CCN2c1cc(-n2ccnc2)c2ccc(Cl)c(Cl)c2n1 (stereo not shown) [I-505]
< 2 µM	O=C(O)c1cccc(S(=O)(=O)N[C@@H]2C[C@@H](C(=O)O)N(c3cc(-n4ccnc4)c4ccc(Cl)c(Cl)c4n3)C2)c1 [I-510]
2 to 30 µM	CN(CCNS(=O)(=O)c1cccc(C(=O)O)c1)c1cc(-n2ccnc2)c2ccc(Cl)c(Cl)c2n1 [I-623]
2 to 30 µM	NC(=O)CCNC(=O)[C@@H]1CCCN1c1cc(-n2ccnc2)c2ccc(Cl)c(Cl)c2n1 [I-554]
< 2 µM	CN(CCS(=O)(=O)N1CCC(C(=O)O)C1)c1cc(-n2ccnc2)c2ccc(Cl)c(Cl)c2n1 (stereo not shown) [I-627]
> 30 µM	O=C(NC12CC(C(=O)O)(C1)C2)[C@@H]1CCCN1c1cc(-n2ccnc2)c2ccc(Cl)c(Cl)c2n1 [I-551]
2 to 30 µM	CC(C)(C)OC(=O)[C@@H]1CCCN1c1cc(-n2ccnc2)c2ccc(Cl)c(Cl)c2n1 [I-644]
> 30 µM	Nc1ccc(-c2cc(N3CCC[C@H]3COCCC(=O)O)nc3c(Cl)c(Cl)ccc23)cn1 [I-822, (S)-3-((1-(4-(6-aminopyridin-3-yl)-7,8-dichloroquinolin-2-yl)pyrrolidin-2-yl)methoxy)propanoic acid]
